In article PMC11487190 (2024):

What was measured:
[1] = test system: semi-synthetic tbpA aptamer (residues 1-89 + 3' anchoring sequence) (RNA, riboswitch, azide-modified U at 14 (clicked to Cy5)) GUUCUCAACGGGGUGCCACGCGUACGCGUGCGCUGAGAAAAUACCCGUCGAACCUGAUCCGGAUAACGCCGGCGAAGGGAUUUGAGGCUCCCCGGCCCCCCGGCC; experiment: smFRET (TIRF); conditions: 20 mM MgCl2, 20 mM NaCl; 1 mM TPP; folded state 14% to 48%; Tris-HCl buffer, pH 7.5
30S ribosomal subunit = experiment: toeprint (primer extension); conditions: tRNA-fMet, with TPP; Toeprint buffer, salt, pH and temperature not given in the material; scale: fold decrease of toeprint efficiency vs no TPP

Which binding [1] does the source give for Cc1ncc(C[n+]2csc(CCOP(=O)(O)OP(=O)(O)O)c2C)c(N)n1 here?
Its binding is “yes”.

With “tbpA riboswitch nascent transcript (toeprint)” as the compound, how does the binding signal (30S ribosomal subunit) read?
Its binding signal is 2.2.
